The nature of series [1]: Toxicity in ICR mouse assessed as effect on body weight at 1 to 10 mg/kg, sc for 14 days. The class given is organism-based. To be noted: in vivo, 336 h, dose 1-10 mg/kg, time 14 day.
Series [2] relates to Mus musculus. The experiment in a line: Cognitive enhancing effect in SAMP8 mouse assessed as longer exploration time at 10 mg/kg, sc for 2 weeks by Novel object recognition test. In kind it is functional, organism-based.
The nature of series [3]: Drug uptake in ICR mouse brain at 10 mg/kg,sc and measured upto 120 mins by LC-MS analysis. To be noted: read-out: Drug uptake. In kind it is ADME, organism-based.
For series [4], the system named is PC-12. The experiment in a line: Neuritogenic activity in rat PC-12 cells assessed as decrease in ERK phosphorylation at 40 uM and incubated for 1 to 2 hrs by Western blot analysis. The class given is functional, cell-based. The note with it: time 1-2 hrs.
Series [5] deals with PC-12. The experiment in a line: Neuritogenic activity in rat PC-12 cells assessed as increase in p38 phosphorylation at 40 uM and measured upto 24 hrs by Western blot analysis. In kind it is functional, cell-based. On the technique in general: A western blot detects proteins with antibodies after separation by electrophoresis.
Series [6] concerns PC-12. The experiment in a line: Neuritogenic activity in rat PC-12 cells assessed as induction of neurite outgrowth at 40 uM incubated for 1 to 6 days by microscopic analysis. In kind it is functional, cell-based. The note with it: time 1-6 day, TDE = time-dependent effect.
Series [7] deals with Mus musculus. Put plainly: Cognitive enhancing effect in aged ICR mouse assessed as longer exploration time at 10 mg/kg, sc for 2 weeks by novel object recognition test. In kind it is functional, organism-based.
For series [8], the system named is PC-12. Put plainly: Neuritogenic activity in rat PC-12 cells assessed as effect on Cdc42 activation at 40 uM incubated for 8 to 12 hrs by Western blot analysis. The class given is functional, cell-based. The note with it: time 8-12 hrs.
For series [9], the system named is PC-12. Put plainly: Neuritogenic activity in rat PC-12 cells assessed as inhibition of neurite outgrowth at 40 uM incubated for 6 days in presence of K252a by microscopic analysis. To be noted: time 6.0 day. In kind it is functional, cell-based.
For series [10], the system named is PC-12. Put plainly: Neuritogenic activity in rat PC-12 cells assessed as effect on TrkA phosphorylation at 40 uM incubated for 4 hrs by Western blot analysis. In kind it is functional, cell-based.
Series [11] has as its system PC-12. The experiment in a line: Neuritogenic activity in rat PC-12 cells overexpressing TrKA assessed as inhibition of neurite outgrowth at 40 uM incubated for 6 days by microscopic analysis. The note with it: time 6.0 day. In kind it is functional, cell-based.
Series [12] has as its system Mus musculus. Put plainly: Cognitive enhancing effect in SAMP8 mouse assessed as improvement of spontaneous alternation behavior by analyzing entry to different arm at 1 to 10 mg/kg, sc for 2 weeks by Y-maze test. To be noted: dose 1-10 mg/kg. In kind it is functional, organism-based.
Series [13] concerns PC-12. The experiment in a line: Neuritogenic activity in rat PC-12 cells assessed as effect on Ras activation at 40 uM incubated for 2 hrs by Western blot analysis. In kind it is functional, cell-based.
Series [14] in a line: Drug uptake in ICR mouse blood at 10 mg/kg,sc and measured at 60 mins by LC-MS analysis. The class given is ADME, organism-based. The note with it: read-out: Drug uptake.
The nature of series [15]: Drug uptake in ICR mouse brain at 10 mg/kg,sc and measured at 60 mins by LC-MS analysis. In kind it is ADME, organism-based. To be noted: read-out: Drug uptake.
The test system of series [16] is PC-12. The experiment in a line: Neuritogenic activity in rat PC-12 cells assessed as induction of neurite outgrowth at 10 to 40 uM incubated for 6 days by microscopic analysis. The class given is functional, cell-based. To be noted: dose 10-40 µM, time 6.0 day.
The subject of series [17] is PC-12. Put plainly: Neuritogenic activity in rat PC-12 cells assessed as inhibition of neurite outgrowth at 1 uM incubated for 6 days in presence of SB203580 by microscopic analysis. The class given is functional, cell-based. To be noted: time 6.0 day.
For series [18], the system named is Mus musculus. The experiment in a line: Cognitive enhancing effect in SAMP8 mouse assessed as effect on locomotion by analyzing entry to different arm at 1 to 10 mg/kg, sc for 2 weeks by Y-maze test. The class given is functional, organism-based. To be noted: dose 1-10 mg/kg.
Series [19] deals with Mus musculus. The experiment in a line: Cognitive enhancing effect in aged ICR mouse assessed as improvement of spontaneous alternation behavior by analyzing entry to different arm at 10 mg/kg, sc for 2 weeks by Y-maze test. The class given is functional, organism-based.
The subject of series [20] is PC-12. Put plainly: Neuritogenic activity in rat PC-12 cells assessed as inhibition of neurite outgrowth at 40 uM incubated for 6 days in presence of […] by microscopic analysis. In kind it is functional, cell-based. The note with it: time 6.0 day.
The subject of series [21] is PC-12. The experiment in a line: Neuritogenic activity in rat PC-12 cells assessed as inhibition of neurite outgrowth at 40 uM incubated for 6 days in presence of PD98059 by microscopic analysis. The class given is functional, cell-based. The note with it: time 6.0 day.
Series [22] can be described thus: Drug uptake in ICR mouse blood at 10 mg/kg,sc and measured upto 120 mins by LC-MS analysis. The note with it: read-out: Drug uptake. In kind it is ADME, organism-based.
Series [23] concerns PC-12. Put plainly: Cytotoxicity against rat PC-12 cells assessed as reduction in cell viability upto 40 uM. In kind it is toxicity, cell-based. The note with it: pc-12, 40 µM.
Series [24] concerns PC-12. Put plainly: Neuritogenic activity in rat PC-12 cells assessed as induction of neurite outgrowth at 40 uM incubated for 6 days by microscopic analysis. The class given is functional.

The values below come from ChEMBL document CHEMBL5236652, “Neuritogenic steroid glycosides from crown-of-thorns starfish: Possible involvement of p38 mitogen-activated protein kinase and attenuation of cognitive impairment in senescence-accelerated mice (SAMP8) by peripheral administration” (Bioorg Med Chem, 2023).

Each structure is given as a SMILES string. Activity calls are given as the source filed them. The rule behind the calls is not given here.

For the molecule `CO[C@H]1[C@H](O[C@@H]2C=C3[C@H](O)C[C@@]4(O)[C@@H]5[C@@H](O)[C@H](O)[C@H]([C@H](C)CC[C@H](CO[C@@H]6OC[C@@H](O)[C@H](O)[C@H]6O)C(C)C)[C@@]5(C)CC[C@@H]4[C@@]3(C)CC2)OC[C@@H](O)[C@@H]1O`, the Activity entry in [1] is “Non-Toxic”; in the series on PC-12 [6] it was “Tde”; with PC-12 [16], “Dose-Dependent Effect”; with PC-12 [23], “Non-Toxic”; in the series with PC-12 [24] (time 6 day) it was 43%. Besides, the outcome in the series with Mus musculus [2], with PC-12 [4], in the series on PC-12 [5], with Mus musculus [7], with PC-12 [8] and in the series on Mus musculus [12] was Active. In the series on Mus musculus [19], the result was Active. In addition, the concentration at 2 h in series [3] is 5 ng/g; in series [22] it was 7.7 ng/mL. Also, the outcome in the series with PC-12 [9], with PC-12 [10], in the series on PC-12 [11], with PC-12 [13], in the series on PC-12 [17] and in the series on Mus musculus [18] was inactive. Besides, the outcome with PC-12 [20] and in the series on PC-12 [21] was inactive. Moreover, the results for the concentration at 1 h in series [14] and in series [15] were 2000 ng/mL and 30 ng/g, respectively.

As for `CO[C@@H]1[C@@H](O)[C@H](OC[C@@H](CC[C@@H](C)[C@H]2[C@@H](O)[C@H](O)[C@@H]3[C@]2(C)CC[C@H]2[C@@]3(O)C[C@@H](O)C3=C[C@@H](O[C@@H]4OC[C@@H](O)[C@H](O)[C@H]4OC)CC[C@@]32C)C(C)C)OC[C@H]1O`, the Activity in the series with PC-12 [24] (time 6 day) is listed as 43%.

Regarding `CO[C@H]1[C@H](O[C@@H]2C=C3[C@H](O)C[C@@]4(O)[C@@H]5[C@@H](O)[C@H](O)[C@H]([C@H](C)CC[C@H](CO)C(C)C)[C@@]5(C)CC[C@@H]4[C@@]3(C)CC2)OC[C@@H](O)[C@@H]1O`, the result with PC-12 [24] (time 6.0 day) was inactive.
